Assay results from ChEMBL document CHEMBL1201862, “PubChem BioAssay data set” (2004).
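Values below derive from 48-hour exposures of cells grown in 96-well plates, with endpoints linearly interpolated between the two concentrations bracketing the appropriate inhibition level. GI50 is the concentration that inhibits growth by half.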 Active and inactive are the calls of the source. Cut-off read from the data, not from the text of the source: active = GI50 up to about 1.1 µM and inactive = higher.

Legend:
Assay in all cases: inhibition of tumour cell growth, NCI panel, 48 h
786-0 = test system: 786-0
A498 = test system: A498
COLO 205 = test system: COLO 205
EKVX = test system: EKVX
IGROV-1 = test system: IGROV-1
KM12 = test system: KM12
LOX IMVI = test system: LOX IMVI
MDA-MB-231 = test system: MDA-MB-231
MDA-MB-435 = test system: MDA-MB-435
MOLT-4 = test system: MOLT-4
Malme-3M = test system: Malme-3M
NCI/ADR-RES = test system: NCI/ADR-RES
RPMI-8226 = test system: RPMI-8226
SF-268 = test system: SF-268
SK-MEL-28 = test system: SK-MEL-28
SNB-19 = test system: SNB-19
SNB-75 = test system: SNB-75
T47D = test system: T47D
U-251 = test system: U-251
HL-60 = test system: HL-60

| SMILES | GI50 (786-0) | GI50 (A498) | GI50 (COLO 205) | GI50 (EKVX) | GI50 (IGROV-1) | GI50 (KM12) | GI50 (LOX IMVI) | GI50 (MDA-MB-231) | GI50 (MDA-MB-435) | GI50 (MOLT-4) | GI50 (Malme-3M) | GI50 (NCI/ADR-RES) | GI50 (RPMI-8226) | GI50 (SF-268) | GI50 (SK-MEL-28) | GI50 (SNB-19) | GI50 (SNB-75) | GI50 (T47D) | GI50 (U-251) | GI50 (HL-60) |
| --- | --- | --- | --- | --- | --- | --- | --- | --- | --- | --- | --- | --- | --- | --- | --- | --- | --- | --- | --- | --- |
| Oc1ccc(/C=N/CC2CCCN3CCCCC23)cc1 (stereo not drawn) | 17.9 µM (inactive) | 26.5 µM (inactive) | 27.6 µM (inactive) | 27.5 µM (inactive) | 24.2 µM (inactive) | 16.4 µM (inactive) | 21.4 µM (inactive) | 28.8 µM (inactive) | 14.1 µM (inactive) | 27.4 µM (inactive) | 24.7 µM (inactive) | 46.8 µM (inactive) | 20.9 µM (inactive) | 24.5 µM (inactive) | 22.5 µM (inactive) | 25.3 µM (inactive) | 51.8 µM (inactive) | 31.3 µM (inactive) | 17.6 µM (inactive) | – |
| Brc1ccc2c3c1[C@H]1O[C@H]1c1cccc(c1-3)[C@@H]1O[C@H]21 | 12.4 µM (inactive) | 21.2 µM (inactive) | 19.3 µM (inactive) | 18.6 µM (inactive) | – | 15.2 µM (inactive) | 2.82 µM (inactive) | 20.6 µM (inactive) | 15 µM (inactive) | 3.61 µM (inactive) | 17.8 µM (inactive) | 22.2 µM (inactive) | – | 17.7 µM (inactive) | 15.9 µM (inactive) | 18 µM (inactive) | 13.2 µM (inactive) | 10.3 µM (inactive) | 14 µM (inactive) | – |
| Cn1c(=O)c2nc(CCNC(=O)c3ccccc3)[nH]c2n(C)c1=O | > 100 µM (inactive) | > 100 µM (inactive) | – | > 100 µM (inactive) | > 100 µM (inactive) | > 100 µM (inactive) | > 100 µM (inactive) | > 100 µM (inactive) | > 100 µM (inactive) | > 100 µM (inactive) | > 100 µM (inactive) | > 100 µM (inactive) | – | > 100 µM (inactive) | > 100 µM (inactive) | > 100 µM (inactive) | > 100 µM (inactive) | > 100 µM (inactive) | > 100 µM (inactive) | – |
| O=c1[nH]nc(Cc2ccccc2)n1C1CCCC1 | > 100 µM (inactive) | > 100 µM (inactive) | > 100 µM (inactive) | > 100 µM (inactive) | > 100 µM (inactive) | > 100 µM (inactive) | > 100 µM (inactive) | > 100 µM (inactive) | > 100 µM (inactive) | > 100 µM (inactive) | > 100 µM (inactive) | > 100 µM (inactive) | > 100 µM (inactive) | > 100 µM (inactive) | > 100 µM (inactive) | > 100 µM (inactive) | > 100 µM (inactive) | > 100 µM (inactive) | > 100 µM (inactive) | > 100 µM (inactive) |
| CC(C)(CO)CNc1nc(N)nc(Cl)c1/C=N/O | 36.7 µM (inactive) | 23.9 µM (inactive) | 62.7 µM (inactive) | 17.5 µM (inactive) | 13 µM (inactive) | 84.5 µM (inactive) | 12.1 µM (inactive) | 25.8 µM (inactive) | 43.9 µM (inactive) | 17 µM (inactive) | 57.4 µM (inactive) | 41.6 µM (inactive) | 15.2 µM (inactive) | 8.91 µM (inactive) | 48.4 µM (inactive) | – | 50.9 µM (inactive) | 4.31 µM (inactive) | 48.6 µM (inactive) | 29.8 µM (inactive) |
| COc1cc2c(c(OC)c1OC)-c1ccc(SC)c(=O)cc1C(NC=O)CC2 (stereo not drawn) | < 0.01 µM (active) | < 0.01 µM (active) | < 0.01 µM (active) | 3.6 µM (inactive) | < 0.01 µM (active) | < 0.01 µM (active) | < 0.01 µM (active) | < 0.01 µM (active) | < 0.01 µM (active) | < 0.01 µM (active) | < 0.01 µM (active) | 0.0393 µM (active) | < 0.01 µM (active) | < 0.01 µM (active) | 0.462 µM (active) | 0.0344 µM (active) | < 0.0442 µM (active) | 54.1 µM (inactive) | < 0.01 µM (active) | < 0.01 µM (active) |
| NC(=O)C[S+]([O-])CC(N)C(=O)O (stereo not drawn) | > 100 µM (inactive) | > 100 µM (inactive) | – | > 100 µM (inactive) | > 100 µM (inactive) | > 100 µM (inactive) | > 100 µM (inactive) | > 100 µM (inactive) | > 100 µM (inactive) | > 100 µM (inactive) | > 100 µM (inactive) | > 100 µM (inactive) | – | > 100 µM (inactive) | > 100 µM (inactive) | > 100 µM (inactive) | > 100 µM (inactive) | > 100 µM (inactive) | > 100 µM (inactive) | – |
| CC(Oc1ccccc1Cl)C(=O)NN1C(=O)CSC1c1ccc(Cl)cc1 (stereo not drawn) | 15.2 µM (inactive) | 19.8 µM (inactive) | 19.6 µM (inactive) | 26.8 µM (inactive) | 20.7 µM (inactive) | 18.1 µM (inactive) | 19.6 µM (inactive) | 17.3 µM (inactive) | 16.4 µM (inactive) | – | 27 µM (inactive) | 23.9 µM (inactive) | 17.9 µM (inactive) | 20.6 µM (inactive) | 23 µM (inactive) | 21.7 µM (inactive) | 22.9 µM (inactive) | 20.1 µM (inactive) | 17.8 µM (inactive) | 7.64 µM (inactive) |
